Experimental data: US10780047B2, “Method of providing birth control” (The Population Council, Inc., priority 2019, dated 2020)
≈ marks a conversion by molar mass, not a printed value. Like-named read-outs stand apart in the source and are kept apart here.

Legend:
[1] = Residual amount of drug in vaginal systems used in clinical trials over 13 product-use cycles; format: in vivo, human; details: based on residual drug in used systems
Description: Although the vaginal system provides SA and EE in the approximate rates described above, SA and EE can diffuse out of the vaginal system with release rates that vary over time. In certain embodiments, the daily in vitro release rates of SA and EE are higher during each initial 24-48 hours of use in a given product-use cycle, achieving a somewhat lower steady-state with continued use over subsequent days in each product-use cycle. Based on the residual amount of drug in vaginal systems used in clinical trials over 13 product-use cycles, a total of approximately 41.3 mg of SA and approximately 3.4 mg of EE are released over this period.

[2] = Pharmacokinetics of the vaginal system in 39 women over up to 13 product-use cycles; format: in vivo, human; design: AUC(0-t) / AUC0-21day / AUC0-1day: concentration or dose not given beside the values; details: vaginal administration; for AUC0-1day / AUC0-21day / Cavg / Cmax / AUC(0-t): mean (SD)
Description: The pharmacokinetics (PK) of the vaginal system described herein were determined in 39 women who used the system for up to 13 product-use cycles. […] Over subsequent product-use cycles, the peak serum concentrations of SA and EE declined. Serum concentration-time profiles of SA and EE for product-pse cycles 1, 3, and 13 of system use are provided in FIG. 1 and FIG. 2 with PK parameters summarized in Table 3 and Table 4.

[3] = target: cytochrome P450 (CYP) 3A4 isoenzyme (Homo sapiens, UniProt P08684)
Description: These are present as free metabolites and as sulfate and glucuronide conjugates.

[4] = Drug-drug interaction study with vaginal miconazole formulations; format: in vivo, human; details: for overall increase in exposure: concurrent 1 day or 3-day oil-based miconazole suppository; for change in exposure from the vaginal system: concurrent water-based vaginal miconazole cream
Description: However, the use of either the 1 day or the 3-day oil-based miconazole suppository was associated with an overall increase in exposure up to 67% for EE and 32% for SA. Considering the potential long-term effect on vaginal system performance, concurrent use of oil-based vaginal suppositories should not occur with the system's use. If there is a need to treat a vaginal condition, water-based vaginal cream or oral therapy may be used concurrently with the vaginal system.

Solubility = details: descriptive term
serum albumin = serum albumin (Homo sapiens, UniProt P02768); test: Serum albumin binding; format: in vitro ADME; details: not specifically bound
[5] = in vivo
[6] = co-administration of atorvastatin or rosuvastatin and certain CHCs containing EE; cited from earlier work
QTc interval = test: Phase 1 thorough QTc study; format: in vivo, human; details: single intravenous bolus dose giving 4.5-fold the therapeutic serum concentrations; 44 healthy adult female subjects
Description: The effect of SA on the QTc interval was evaluated in a Phase 1 randomized, placebo and positive controlled, double-blind, single-dose, three-period, crossover thorough QTc study in 44 healthy adult female subjects.

rats [7] = test: Return to fertility study in rats with subdermal implants; format: in vivo, rat
Description: A return to fertility study was conducted with segesterone acetate in rats, using subdermal implants releasing a dose approximately 25 times the anticipated daily vaginal human dose (based on body surface area).

[8] = system: Chinese hamster ovary cells; test: Chromosomal aberration assay; format: cell-based
mice = test: 2-year intravaginal carcinogenicity study in mice; format: in vivo, mouse; details: intravaginal gel, 2 years
Description: (§1) Long-term continuous administration of natural and synthetic estrogens in certain animal species increases the frequency of carcinomas of the breast, uterus, cervix, vagina, testis, and liver.

human serum proteins = test: Serum protein binding; format: in vitro ADME
physchem = details: water
Salmonella = test: Ames/Salmonella reverse mutation assay; format: cell-based
mouse = test: In vivo mouse micronucleus test
rats [9] = test: 2-year carcinogenicity study in rats with subdermal implants; format: in vivo, rat; details: subdermal implants releasing 40, 100, and 200 μg per day, 2 years
Description: as §1

CYP enzymes = test: In vitro CYP inhibition/induction studies; format: in vitro ADME; details: at the therapeutic dose
clinical = details: human, in vivo
[10] = target: T1, sex hormone-binding globulin (SHBG) (Homo sapiens, UniProt P04278); test: Binding affinity for SHBG
T1 sequence (P04278 30-402): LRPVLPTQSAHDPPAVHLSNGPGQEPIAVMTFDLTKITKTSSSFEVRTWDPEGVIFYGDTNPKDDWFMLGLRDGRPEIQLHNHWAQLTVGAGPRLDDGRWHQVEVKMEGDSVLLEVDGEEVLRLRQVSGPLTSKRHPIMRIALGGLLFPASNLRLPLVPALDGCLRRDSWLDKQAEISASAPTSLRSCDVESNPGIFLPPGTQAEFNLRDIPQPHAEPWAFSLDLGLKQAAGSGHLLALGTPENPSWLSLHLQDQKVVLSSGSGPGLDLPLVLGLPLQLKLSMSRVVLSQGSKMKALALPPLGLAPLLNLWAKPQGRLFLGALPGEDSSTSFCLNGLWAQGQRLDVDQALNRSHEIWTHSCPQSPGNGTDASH

cytochrome P450 (CYP) 3A4 isoenzyme, sequence (P08684 whole entry): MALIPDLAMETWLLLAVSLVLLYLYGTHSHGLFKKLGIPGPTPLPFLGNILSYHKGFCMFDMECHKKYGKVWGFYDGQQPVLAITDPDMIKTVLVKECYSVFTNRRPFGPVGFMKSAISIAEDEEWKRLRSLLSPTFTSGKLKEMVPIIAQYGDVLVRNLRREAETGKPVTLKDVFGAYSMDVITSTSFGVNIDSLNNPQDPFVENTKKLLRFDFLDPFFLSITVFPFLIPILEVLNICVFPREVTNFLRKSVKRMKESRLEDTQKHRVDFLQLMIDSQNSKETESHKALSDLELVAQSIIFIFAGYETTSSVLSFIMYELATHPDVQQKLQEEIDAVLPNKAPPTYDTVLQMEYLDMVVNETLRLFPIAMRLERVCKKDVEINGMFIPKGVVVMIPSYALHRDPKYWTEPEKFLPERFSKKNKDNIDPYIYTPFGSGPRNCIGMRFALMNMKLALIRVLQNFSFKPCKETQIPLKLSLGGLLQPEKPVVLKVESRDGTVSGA
serum albumin, sequence (P02768 25-609): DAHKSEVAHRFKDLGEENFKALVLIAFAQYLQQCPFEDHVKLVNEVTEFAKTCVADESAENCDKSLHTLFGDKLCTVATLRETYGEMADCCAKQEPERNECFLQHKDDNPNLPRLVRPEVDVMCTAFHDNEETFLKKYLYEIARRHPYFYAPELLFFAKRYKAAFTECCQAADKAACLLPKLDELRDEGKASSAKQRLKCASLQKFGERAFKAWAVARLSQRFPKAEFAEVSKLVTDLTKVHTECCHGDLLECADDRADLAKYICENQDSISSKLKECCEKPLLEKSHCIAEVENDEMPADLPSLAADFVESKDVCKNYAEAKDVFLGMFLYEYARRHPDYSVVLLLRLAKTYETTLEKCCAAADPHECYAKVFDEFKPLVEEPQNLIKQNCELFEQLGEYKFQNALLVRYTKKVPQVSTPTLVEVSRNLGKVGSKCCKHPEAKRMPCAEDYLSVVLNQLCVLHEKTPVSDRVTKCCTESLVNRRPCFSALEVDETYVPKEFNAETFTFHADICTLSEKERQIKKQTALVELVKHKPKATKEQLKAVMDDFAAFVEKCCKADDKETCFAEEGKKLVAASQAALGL

C#C[C@]1(O)CC[C@H]2[C@@H]3CCc4cc(O)ccc4[C@H]3CC[C@@]21C [EE, 19-nor-17α-pregna-1,3,5(10)-trien-20-yne-3,17-diol]
total amount released [1]: approximately 3.4 mg
AUC0-1day ([2]; Cycle 1, serum): 2.1 (0.7) ng * hr/mL
AUC0-21day ([2]; Cycle 1, serum): 22.2 (9.8) ng * hr/mL
Cavg ([2]; Cycle 1, serum): 44 (19) pg/mL
Cmax ([2]; Cycle 1, serum): 129 (39) pg/mL
AUC0-1day ([2]; Cycle 3, serum): 0.9 (0.4) ng * hr/mL
AUC0-21day ([2]; Cycle 3, serum): 14.7 (4.7) ng * hr/mL
Cavg ([2]; Cycle 3, serum): 29 (9) pg/mL
Cmax ([2]; Cycle 3, serum): 60 (32) pg/mL
AUC0-1day ([2]; Cycle 13, serum): 0.7 (0.3) ng * hr/mL
AUC0-21day ([2]; Cycle 13, serum): 9.6 (4.1) ng * hr/mL
Cavg ([2]; Cycle 13, serum): 19 (8) pg/mL
Cmax ([2]; Cycle 13, serum): 39 (16) pg/mL
median Tmax ([2]; product-use cycle 1, 3 and 13): about 2 hours
metabolizing enzyme [3]: metabolized by the cytochrome P450 (CYP) 3A4 isoenzyme
overall increase in exposure [4]: up to 67%
change in exposure from the vaginal system [4]: no change
solubility in alkaline solution (Solubility): dissolves
bound to serum albumin (serum albumin): 98.5%
half-life ([5]; human): 15.1 (7.5) hours
effect on serum concentrations of SHBG [5]: induces an increase
increase in systemic exposure of EE [6]: 20-25%

C=C1C[C@H]2[C@@H]3CCC4=CC(=O)CC[C@@H]4[C@H]3CC[C@]2(C)[C@@]1(OC(C)=O)C(C)=O [SA, 16-methylene-17α-acetoxy-19-nor-pregn-4-ene-3,20-dione]
total amount released [1]: approximately 41.3 mg
effect on the QTc interval (QTc interval): did not prolong the QTc interval to any clinically relevant extent
effects on ovulation or litter parameters after treatment (rats [7]; 7 weeks after cessation of treatment): no adverse effects on ovulation or resulting litter parameters
effect on fertility (rats [7]; subdermal implants, three months of treatment, approximately 25 times the human dose): suppressed fertility
Cavg ([2]; Cycle 1, serum): 191 (34) pg/mL
Cavg ([2]; Cycle 3, serum): 131 (29) pg/mL
Cavg ([2]; Cycle 13, serum): 94 (20) pg/mL
AUC(0-t) ([2]; female, human, serum, Cycle 1, serum, read-out: AUC0-1day): 15 ng·h/mL
AUC(0-t) ([2]; female, human, serum, Cycle 1, serum, read-out: AUC0-21day): 96.2 ng·h/mL
Cmax ([2]; female, human, serum, Cycle 1, serum, read-out: Cmax): 1.15 ng/mL
AUC(0-t) ([2]; female, human, serum, Cycle 3, serum, read-out: AUC0-1day): 5 ng·h/mL
AUC(0-t) ([2]; female, human, serum, Cycle 3, serum, read-out: AUC0-21day): 65.9 ng·h/mL
Cmax ([2]; female, human, serum, Cycle 3, serum, read-out: Cmax): 0.363 ng/mL
AUC(0-t) ([2]; female, human, serum, Cycle 13, serum, read-out: AUC0-1day): 3.9 ng·h/mL
AUC(0-t) ([2]; female, human, serum, Cycle 13, serum, read-out: AUC0-21day): 47.2 ng·h/mL
Cmax ([2]; female, human, serum, Cycle 13, serum, read-out: Cmax): 0.294 ng/mL
Tmax ([2]; female, human, serum, product-use cycle 1, 3 and 13, read-out: median Tmax): ~2 h
metabolizing enzyme ([3]; human): metabolized by the cytochrome P450 (CYP) 3A4 isoenzyme
chromosomal aberration [8]: neither mutagenic nor elastogenic
overall increase in exposure [4]: ≤ 32%
change in exposure from the vaginal system [4]: no change
carcinogenic findings (mice; 10 mg/kg/day): did not result in carcinogenic findings
carcinogenic findings (mice; 30 mg/kg/day): increased incidence of adenocarcinoma and lobular hyperplasia in the breast
bound to human serum proteins (human serum proteins): approximately 95%
solubility (physchem): 18.5 µg/mL (≈ 49.9 µM)
mutagenicity (Salmonella): neither mutagenic nor elastogenic
micronucleus test result (mouse): neither mutagenic nor elastogenic
tumor incidence (rats [9]): no drug-related increase in tumor incidence
inhibition or induction of CYP enzymes (CYP enzymes): unlikely to inhibit or induce CYP enzymes
Vd (clinical): 19.6 L/kg
half-life (clinical): 4.5 h
binding affinity for sex hormone-binding globulin (SHBG) [10]: negligible
